Experimental data from patent publication US9199946B2, “Pyrimidinone carboxamide inhibitors of endothelial lipase” (BRISTOL-MYERS SQUIBB COMPANY, priority 2012, dated 2015).

These compounds were tested against T1, Endothelial lipase (EL) (Homo sapiens, UniProt Q9Y5X9) (assay: Endothelial lipase (EL) enzymatic assay with fluorescent substrate A10070 in DMPG vesicles). Details: range observed in the EL assay; read-out: EL IC50 values.
T1 construct: HT-1080 cells, which were transformed by RAGE technology (Athersys) to overexpress endogenous EL; endogenous in cells; conditioned medium used as the enzyme source
T1 sequence (Q9Y5X9 21-500): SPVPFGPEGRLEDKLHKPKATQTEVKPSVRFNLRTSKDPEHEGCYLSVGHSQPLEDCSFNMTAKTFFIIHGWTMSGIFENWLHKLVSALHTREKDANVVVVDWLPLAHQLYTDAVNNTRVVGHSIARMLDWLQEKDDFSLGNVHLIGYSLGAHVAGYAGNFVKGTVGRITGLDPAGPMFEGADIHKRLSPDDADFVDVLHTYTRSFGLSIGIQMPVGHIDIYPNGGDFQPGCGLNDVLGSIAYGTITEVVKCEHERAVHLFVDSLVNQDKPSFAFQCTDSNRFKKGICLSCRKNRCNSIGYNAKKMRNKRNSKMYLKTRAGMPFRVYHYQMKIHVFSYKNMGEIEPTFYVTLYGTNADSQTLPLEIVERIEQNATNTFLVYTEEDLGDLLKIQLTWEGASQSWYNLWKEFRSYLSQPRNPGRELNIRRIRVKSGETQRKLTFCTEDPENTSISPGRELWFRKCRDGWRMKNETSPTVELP
Assay type: biochemical
Summary of the method: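 The enzyme source was conditioned medium from HT-1080 cells engineered to overexpress endogenous EL. It was preincubated with compound for 20 min at 37 °C in 50 mM HEPES pH 8.0, 50 mM NaCl, 1 mM CaCl2. Reactions started with DMPG vesicles carrying FRET substrate A10070 (mole fraction 0.05). The rate was taken from the linear slope of fluorescence (ex 488/em 530 nm) over 10 min.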

IC50, ≤ 10 µM:
COC(=O)C1CCCC(NC(=O)c2[nH]c(=O)[nH]c(=O)c2N)C1 (stereo not drawn) [Example 58, methyl 3-(5-amino-2,6-dioxo-1,2,3,6-tetrahydropyrimidine-4-carboxamido) cyclohexanecarboxylate]
Nc1c(C(=O)NC2CCCCC2C2CCCCC2)[nH]c(=O)[nH]c1=O (stereo not drawn) [Example 59, 5-amino-N-(bi(cyclohexan)-2-yl)-2,6-dioxo-1,2,3,6-tetrahydropyrimidine-4-carboxamide]
Nc1c(C(=O)N[C@H]2CCc3c(Br)cccc32)[nH]c(=O)[nH]c1=O [Example 60, (S)-5-amino-N-(4-bromo-2,3-dihydro-1H-inden-1-yl)-2,6-dioxo-1,2,3,6-tetrahydropyrimidine-4-carboxamide]
CCOC(=O)[C@H]1CCC[C@H]1NC(=O)c1[nH]c(=O)[nH]c(=O)c1N [Example 61, (1S,2R)-ethyl 2-(5-amino-2,6-dioxo-1,2,3,6-tetrahydropyrimidine-4-carboxamido) cyclopentanecarboxylate]
CC(C)(C)OC(=O)N1CCC(NC(=O)c2[nH]c(=O)[nH]c(=O)c2N)C1 (stereo not drawn) [Example 62, tert-butyl 3-(5-amino-2,6-dioxo-1,2,3,6-tetrahydropyrimidine-4-carboxamido)pyrrolidine-1-carboxylate]
Nc1c(C(=O)N[C@@H]2CCC[C@H]2OCc2ccccc2)[nH]c(=O)[nH]c1=O [Example 63, 5-amino-N-((1R,2R)-2-(benzyloxy)cyclopentyl)-2,6-dioxo-1,2,3,6-tetrahydropyrimidine-4-carboxamide]
Nc1c(C(=O)N[C@@H]2CCC[C@@H]2c2ccc(Cl)cc2)[nH]c(=O)[nH]c1=O [Example 64, 5-amino-N-((1R,2R)-2-(4-chlorophenyl)cyclopentyl)-2,6-dioxo-1,2,3,6-tetrahydropyrimidine-carboxamide]
Nc1c(C(=O)N[C@@H]2CCc3cc(Br)ccc32)[nH]c(=O)[nH]c1=O [Example 65, (R)-5-amino-N-(5-bromo-2,3-dihydro-1H-inden-1-yl)-2,6-dioxo-1,2,3,6-tetrahydropyrimidine-4-carboxamide]
COc1cccc2c1C(NC(=O)c1[nH]c(=O)[nH]c(=O)c1N)CCC2 (stereo not drawn) [Example 66, 5-amino-N-(8-methoxy-1,2,3,4-tetrahydronaphthalen-1-yl)-2,6-dioxo-1,2,3,6-tetrahydropyrimidine-4-carboxamide]
Nc1c(C(=O)N[C@H]2CC[C@@H](c3ccc(Cl)c(Cl)c3)C2)[nH]c(=O)[nH]c1=O [Example 67, 5-amino-N-((1S,3R)-3-(3,4-dichlorophenyl)cyclopentyl)-2,6-dioxo-1,2,3,6-tetrahydropyrimidine-4-carboxamide]
Nc1c(C(=O)N[C@@H]2CC[C@@H](c3ccc(Cl)c(Cl)c3)C2)[nH]c(=O)[nH]c1=O [Example 68, 5-amino-N-((1R,3R)-3-(3,4-dichlorophenyl)cyclopentyl)-2,6-dioxo-1,2,3,6-tetrahydropyrimidine-4-carboxamide]
Nc1c(C(=O)N[C@H]2CC[C@H](c3ccc(Cl)c(Cl)c3)C2)[nH]c(=O)[nH]c1=O [Example 69, 5-amino-N-((1S,3S)-3-(3,4-dichlorophenyl)cyclopentyl)-2,6-dioxo-1,2,3,6-tetrahydropyrimidine-4-carboxamide]
COc1ccc2c(c1)CC[C@H]2NC(=O)c1[nH]c(=O)[nH]c(=O)c1N [Example 70, (R)-5-amino-N-(5-methoxy-2,3-dihydro-1H-inden-1-yl)-2,6-dioxo-1,2,3,6-tetrahydropyrimidine-4-carboxamide]
Nc1c(C(=O)N[C@H]2CC[C@H](c3ccccc3)c3ccccc32)[nH]c(=O)[nH]c1=O [Example 71, 5-amino-2,6-dioxo-N-((1S,4R)-4-phenyl-1,2,3,4-tetrahydronaphthalen-1-yl)-1,2,3,6-tetrahydropyrimidine-4-carboxamide]
Nc1c(C(=O)N[C@@H]2CC[C@H](c3ccc(Cl)c(Cl)c3)C2)[nH]c(=O)[nH]c1=O [Example 74, 5-amino-N-((1R,3S)-3-(3,4-dichlorophenyl)cyclopentyl)-2,6-dioxo-1,2,3,6-tetrahydropyrimidine-4-carboxamide]
Nc1c(C(=O)N[C@@H]2CC[C@H](c3ccccc3)C2)[nH]c(=O)[nH]c1=O [Example 75, 5-amino-2,6-dioxo-N-((1R,3S)-3-phenylcyclopentyl)-1,2,3,6-tetrahydropyrimidine-4-carboxamide]
Nc1c(C(=O)N[C@H]2CC[C@H](c3ccccc3)C2)[nH]c(=O)[nH]c1=O [Example 76, 5-amino-2,6-dioxo-N-((1S,3S)-3-phenylcyclopentyl)-1,2,3,6-tetrahydropyrimidine-4-carboxamide]
Nc1c(C(=O)N[C@@H]2CC[C@@H](c3ccccc3)C2)[nH]c(=O)[nH]c1=O [Example 77, 5-amino-2,6-dioxo-N-((1R,3R)-3-phenylcyclopentyl)-1,2,3,6-tetrahydropyrimidine-4-carboxamide]
Nc1c(C(=O)N[C@H]2CC[C@@H](c3ccccc3)C2)[nH]c(=O)[nH]c1=O [Example 78, 5-amino-2,6-dioxo-N-((1S,3R)-3-phenylcyclopentyl)-1,2,3,6-tetrahydropyrimidine-4-carboxamide]
COc1ccc([C@@H]2CC[C@H](NC(=O)c3[nH]c(=O)[nH]c(=O)c3N)C2)cn1 [Example 79, 5-amino-N-((1S,3R)-3-(6-methoxypyridin-3-yl)cyclopentyl)-2,6-dioxo-1,2,3,6-tetrahydropyrimidine-4-carboxamide]
COc1ccc([C@@H]2CC[C@@H](NC(=O)c3[nH]c(=O)[nH]c(=O)c3N)C2)cn1 [Example 80, 5-amino-N-((1R,3R)-3-(6-methoxypyridin-3-yl)cyclopentyl)-2,6-dioxo-1,2,3,6-tetrahydropyrimidine-4-carboxamide]
COc1cccc(N2CC(NC(=O)c3[nH]c(=O)[nH]c(=O)c3N)CC2=O)c1 (stereo not drawn) [Example 81, 5-amino-N-(1-(3-methoxyphenyl)-5-oxopyrrolidin-3-yl)-2,6-dioxo-1,2,3,6-tetrahydropyrimidine-4-carboxamide]
Nc1c(C(=O)N[C@@H]2CCCc3c(OCc4ccccc4)cccc32)[nH]c(=O)[nH]c1=O [Example 82, (R)-5-amino-N-(5-(benzyloxy)-1,2,3,4-tetrahydronaphthalen-1-yl)-2,6-dioxo-1,2,3,6-tetrahydropyrimidine-4-carboxamide]
Nc1c(C(=O)N[C@@H]2CCCc3cc(OCc4ccccc4)ccc32)[nH]c(=O)[nH]c1=O [Example 83, (R)-5-amino-N-(6-(benzyloxy)-1,2,3,4-tetrahydronaphthalen-1-yl)-2,6-dioxo-1,2,3,6-tetrahydropyrimidine-4-carboxamide]
Nc1c(C(=O)N[C@@H]2CCCc3c(Oc4ccccc4)cccc32)[nH]c(=O)[nH]c1=O [Example 84, (R)-5-amino-2,6-dioxo-N-(5-phenoxy-1,2,3,4-tetrahydronaphthalen-1-yl)-1,2,3,6-tetrahydropyrimidine-4-carboxamide]
Nc1c(C(=O)N[C@@H]2CCCc3cc(Oc4ccccc4)ccc32)[nH]c(=O)[nH]c1=O [Example 85, (R)-5-amino-2,6-dioxo-N-(6-phenoxy-1,2,3,4-tetrahydronaphthalen-1-yl)-1,2,3,6-tetrahydropyrimidine-4-carboxamide]
Nc1c(C(=O)N[C@@H]2CCc3c(OCc4ccccc4)cccc32)[nH]c(=O)[nH]c1=O [Example 86, (R)-5-ammo-N-(4-(benzyloxy)-2,3-dihydro-1H-inden-1-yl)-2,6-dioxo-1,2,3,6-tetrahydropyrimidine-4-carboxamide]
Nc1c(C(=O)N[C@@H]2CCc3cc(OCc4ccccc4)ccc32)[nH]c(=O)[nH]c1=O [Example 87, (R)-5-amino-N-(5-(benzyloxy)-2,3-dihydro-1H-inden-1-yl)-2,6-dioxo-1,2,3,6-tetrahydropyrimidine-4-carboxamide]
Nc1c(C(=O)N[C@@H]2CCc3c(Oc4ccccc4)cccc32)[nH]c(=O)[nH]c1=O [Example 88, (R)-5-amino-2,6-dioxo-N-(4-phenoxy-2,3-dihydro-1H-inden-1-yl)-1,2,3,6-tetrahydropyrimidine-4-carboxamide]
Nc1c(C(=O)N[C@@H]2CCc3cc(Oc4ccccc4)ccc32)[nH]c(=O)[nH]c1=O [Example 89, (R)-5-amino-2,6-dioxo-N-(5-phenoxy-2,3-dihydro-1H-inden-1-yl)-1,2,3,6-tetrahydropyrimidine-4-carboxamide]
